Laboratory results as given in the NIST ThermoML archive (doi:10.1021/je060291c).
Values joined by “and” are separate entries in the source; they are usually repeats but may differ in a detail not shown here. Equal entries are not always repeated. ± gives the expanded uncertainty stated by the source.

Test: wn = mass fraction of the nth substance listed
Conditions: Liquid, Pulse-echo method, w2 = 0.49

Q: Which results are given for `CC(F)(F)F` [1,1,1-trifluoroethane] + FC(F)C(F)(F)F?
A: speed of sound (265.62 K, 14000 kPa): 649.8 ± 1.3 m/s; speed of sound (265.62 K, 16010 kPa): 663.9 ± 1.3 m/s; speed of sound (265.62 K, 18000 kPa): 677.1 ± 1.3 m/s; speed of sound (265.62 K, 20000 kPa): 690.1 ± 1.3 m/s; speed of sound (265.62 K, 23000 kPa): 708.2 ± 1.3 m/s; speed of sound (265.62 K, 26000 kPa): 725.7 ± 1.3 m/s; speed of sound (265.62 K, 29010 kPa): 742.6 ± 1.3 m/s; speed of sound (265.62 K, 32000 kPa): 758.5 ± 1.3 m/s; speed of sound (265.62 K, 35000 kPa): 773.9 ± 1.3 m/s; speed of sound (265.62 K, 40000 kPa): 798.3 ± 1.3 m/s; speed of sound (265.62 K, 45000 kPa): 821.3 ± 1.3 m/s; speed of sound (265.62 K, 50000 kPa): 843.1 ± 1.3 m/s; speed of sound (265.62 K, 55000 kPa): 863.8 ± 1.3 m/s; speed of sound (265.62 K, 60000 kPa): 883.7 ± 1.3 m/s; speed of sound (265.62 K, 65000 kPa): 902.8 ± 1.3 m/s; speed of sound (273.14 K, 940 kPa): 500.1 ± 1.3 m/s; speed of sound (273.14 K, 1010 kPa): 500.9 ± 1.3 m/s; speed of sound (273.14 K, 1130 kPa): 502.3 ± 1.3 m/s; speed of sound (273.14 K, 1260 kPa): 503.8 ± 1.3 m/s; speed of sound (273.14 K, 1380 kPa): 505.3 ± 1.3 m/s; speed of sound (273.14 K, 1500 kPa): 506.6 ± 1.3 m/s; speed of sound (273.14 K, 1630 kPa): 508.1 ± 1.3 m/s; speed of sound (273.14 K, 1750 kPa): 509.5 ± 1.3 m/s; speed of sound (273.14 K, 2010 kPa): 512.5 ± 1.3 m/s; speed of sound (273.14 K, 2250 kPa): 515.3 ± 1.3 m/s; speed of sound (273.14 K, 2510 kPa): 518.1 ± 1.3 m/s; speed of sound (273.14 K, 2750 kPa): 520.9 ± 1.3 m/s; speed of sound (273.14 K, 3010 kPa): 523.7 ± 1.3 m/s; speed of sound (273.14 K, 3500 kPa): 529.2 ± 1.3 m/s; speed of sound (273.14 K, 4000 kPa): 534.4 ± 1.3 m/s; speed of sound (273.14 K, 4500 kPa): 539.5 ± 1.3 m/s; speed of sound (273.14 K, 5000 kPa): 544.6 ± 1.3 m/s; speed of sound (273.14 K, 6010 kPa): 554.2 ± 1.3 m/s; speed of sound (273.14 K, 7010 kPa): 563.6 ± 1.3 m/s; speed of sound (273.14 K, 8000 kPa): 572.9 ± 1.3 m/s; speed of sound (273.14 K, 9000 kPa): 581.6 ± 1.3 m/s; speed of sound (273.14 K, 10000 kPa): 590.2 ± 1.3 m/s; speed of sound (273.14 K, 12000 kPa): 606.5 ± 1.3 m/s; speed of sound (273.14 K, 14000 kPa): 622 ± 1.3 m/s; speed of sound (273.14 K, 16010 kPa): 636.6 ± 1.3 m/s; speed of sound (273.14 K, 18000 kPa): 650.5 ± 1.3 m/s; speed of sound (273.14 K, 20000 kPa): 663.8 ± 1.3 m/s; speed of sound (273.14 K, 23000 kPa): 683.2 ± 1.3 m/s; speed of sound (273.14 K, 26000 kPa): 701.6 ± 1.3 m/s; speed of sound (273.14 K, 29010 kPa): 718.9 ± 1.3 m/s; speed of sound (273.14 K, 32000 kPa): 735.3 ± 1.3 m/s; speed of sound (273.14 K, 35000 kPa): 751.1 ± 1.3 m/s; speed of sound (273.14 K, 40000 kPa): 775.8 ± 1.3 m/s; speed of sound (273.14 K, 45000 kPa): 799.7 ± 1.3 m/s; speed of sound (273.14 K, 50000 kPa): 822 ± 1.3 m/s; speed of sound (273.14 K, 55000 kPa): 843.4 ± 1.3 m/s; speed of sound (273.14 K, 60000 kPa): 863.4 ± 1.3 m/s; speed of sound (273.14 K, 65000 kPa): 882.8 ± 1.3 m/s; speed of sound (280.7 K, 1140 kPa): 465.9 ± 1.3 m/s; speed of sound (280.7 K, 1160 kPa): 466.2 ± 1.3 m/s; speed of sound (280.7 K, 1210 kPa): 466.5 ± 1.3 m/s; speed of sound (280.7 K, 1260 kPa): 467.5 ± 1.3 m/s; speed of sound (280.7 K, 1380 kPa): 469.1 ± 1.3 m/s; speed of sound (280.7 K, 1500 kPa): 471 ± 1.3 m/s; speed of sound (280.7 K, 1630 kPa): 472.4 ± 1.3 m/s; speed of sound (280.7 K, 1750 kPa): 473.9 ± 1.3 m/s; speed of sound (280.7 K, 2010 kPa): 477.2 ± 1.3 m/s; speed of sound (280.7 K, 2250 kPa): 480.2 ± 1.3 m/s; speed of sound (280.7 K, 2510 kPa): 483.5 ± 1.3 m/s; speed of sound (280.7 K, 2750 kPa): 486.6 ± 1.3 m/s; speed of sound (280.7 K, 3010 kPa): 489.8 ± 1.3 m/s; speed of sound (280.7 K, 3500 kPa): 495.6 ± 1.3 m/s; speed of sound (280.7 K, 4000 kPa): 501.4 ± 1.3 m/s; speed of sound (280.7 K, 4500 kPa): 507.2 ± 1.3 m/s; speed of sound (280.7 K, 5000 kPa): 512.8 ± 1.3 m/s; speed of sound (280.7 K, 6010 kPa): 523.3 ± 1.3 m/s; speed of sound (280.7 K, 7010 kPa): 533.5 ± 1.3 m/s; speed of sound (280.7 K, 8000 kPa): 543.1 ± 1.3 m/s; speed of sound (280.7 K, 9000 kPa): 552.7 ± 1.3 m/s; speed of sound (280.7 K, 10000 kPa): 561.9 ± 1.3 m/s; speed of sound (280.7 K, 12000 kPa): 579.4 ± 1.3 m/s; speed of sound (280.7 K, 14000 kPa): 595.5 ± 1.3 m/s; speed of sound (280.7 K, 16010 kPa): 611 ± 1.3 m/s; speed of sound (280.7 K, 18000 kPa): 625.4 ± 1.3 m/s; speed of sound (280.7 K, 20000 kPa): 639.5 ± 1.3 m/s; speed of sound (280.7 K, 23000 kPa): 659.6 ± 1.3 m/s; speed of sound (280.7 K, 26000 kPa): 678.2 ± 1.3 m/s; speed of sound (280.7 K, 29010 kPa): 696.3 ± 1.3 m/s; speed of sound (280.7 K, 32000 kPa): 713.7 ± 1.3 m/s; speed of sound (280.7 K, 35000 kPa): 729.9 ± 1.3 m/s; speed of sound (280.7 K, 40000 kPa): 755.3 ± 1.3 m/s; speed of sound (280.7 K, 45000 kPa): 779.7 ± 1.3 m/s; speed of sound (280.7 K, 50000 kPa): 802.7 ± 1.3 m/s; speed of sound (280.7 K, 55000 kPa): 824.2 ± 1.3 m/s; speed of sound (280.7 K, 60000 kPa): 845.1 ± 1.3 m/s; speed of sound (280.7 K, 65000 kPa): 864.9 ± 1.3 m/s; speed of sound (288.18 K, 1130 kPa): 427.1 ± 1.3 m/s; speed of sound (288.18 K, 1190 kPa): 428.3 ± 1.3 m/s; speed of sound (288.18 K, 1260 kPa): 429.1 ± 1.3 m/s; speed of sound (288.18 K, 1500 kPa): 432.9 ± 1.3 m/s; speed of sound (288.18 K, 1630 kPa): 434.9 ± 1.3 m/s; speed of sound (288.18 K, 1750 kPa): 436.7 ± 1.3 m/s and 436.6 ± 1.3 m/s
